# Measured values from ChEMBL document CHEMBL5579855 (J Med Chem, 2024).
# Key:
# [1] = test system: PANC-1; assay: cells; conditions: Homo sapiens, PANC-1, 96 h
# Description: Antiproliferative activity against human PANC-1 cells assessed as inhibition of cell growth incubated for 96 hrs by CCK-8 cell viability assay
# [2] = test system: MDA-MB-231; assay: cells; conditions: Homo sapiens, MDA-MB-231, 96 h
# Description: Antiproliferative activity against human MDA-MB-231 cells assessed as inhibition of cell growth incubated for 96 hrs by CCK-8 cell viability assay
# [3] = test system: PANC-1; assay: Antitumor activity against human PANC-1 cells xenografted in male BALB/c/Nu/Nu assessed as reduction in tumor growth inhibition at 4 mg/kg, ip and measured every 2 days for 21 days; conditions: Mus musculus, PANC-1, 48 h, read-out: TGI
# [4] = biological target: T1, Histone-lysine N-methyltransferase EHMT2 (Homo sapiens, UniProt Q96KQ7); assay: Inhibition of G9a (unknown origin) by AlphaLISA assay
# T1 sequence (Q96KQ7 whole entry): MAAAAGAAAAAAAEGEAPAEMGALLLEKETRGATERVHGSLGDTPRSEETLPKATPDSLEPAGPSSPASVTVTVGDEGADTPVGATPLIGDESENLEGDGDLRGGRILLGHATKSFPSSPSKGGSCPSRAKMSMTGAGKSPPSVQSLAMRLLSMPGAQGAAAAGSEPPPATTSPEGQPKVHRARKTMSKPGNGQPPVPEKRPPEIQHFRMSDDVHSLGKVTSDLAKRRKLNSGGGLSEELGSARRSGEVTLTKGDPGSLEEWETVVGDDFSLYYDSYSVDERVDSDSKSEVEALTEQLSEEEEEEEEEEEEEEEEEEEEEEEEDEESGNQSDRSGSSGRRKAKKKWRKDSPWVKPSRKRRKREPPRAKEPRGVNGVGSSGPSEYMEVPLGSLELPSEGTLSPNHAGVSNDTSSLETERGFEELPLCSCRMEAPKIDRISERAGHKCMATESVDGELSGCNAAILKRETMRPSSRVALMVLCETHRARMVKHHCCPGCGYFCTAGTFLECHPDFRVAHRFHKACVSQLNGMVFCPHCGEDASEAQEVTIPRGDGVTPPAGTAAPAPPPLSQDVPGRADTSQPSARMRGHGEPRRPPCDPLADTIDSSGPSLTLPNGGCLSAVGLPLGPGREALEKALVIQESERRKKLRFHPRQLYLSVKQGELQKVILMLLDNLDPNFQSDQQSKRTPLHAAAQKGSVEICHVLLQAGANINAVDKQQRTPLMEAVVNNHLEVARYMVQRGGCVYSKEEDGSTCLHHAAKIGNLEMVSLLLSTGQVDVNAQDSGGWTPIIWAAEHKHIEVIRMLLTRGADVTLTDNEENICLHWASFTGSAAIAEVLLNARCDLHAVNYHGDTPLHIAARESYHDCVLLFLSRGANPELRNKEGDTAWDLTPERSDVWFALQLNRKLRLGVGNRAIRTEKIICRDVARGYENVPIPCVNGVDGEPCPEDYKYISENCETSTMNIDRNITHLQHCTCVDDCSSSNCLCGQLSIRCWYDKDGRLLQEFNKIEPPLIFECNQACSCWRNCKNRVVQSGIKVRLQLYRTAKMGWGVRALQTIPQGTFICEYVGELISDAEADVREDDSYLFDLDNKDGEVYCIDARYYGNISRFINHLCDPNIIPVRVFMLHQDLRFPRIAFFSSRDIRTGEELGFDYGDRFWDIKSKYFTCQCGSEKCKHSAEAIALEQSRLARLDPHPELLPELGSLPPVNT
# [5] = biological target: T2, Histone-lysine N-methyltransferase NSD2 (Homo sapiens, UniProt O96028); assay: Inhibition of NSD2 (unknown origin) by AlphaLISA assay
# T2 sequence (O96028 whole entry): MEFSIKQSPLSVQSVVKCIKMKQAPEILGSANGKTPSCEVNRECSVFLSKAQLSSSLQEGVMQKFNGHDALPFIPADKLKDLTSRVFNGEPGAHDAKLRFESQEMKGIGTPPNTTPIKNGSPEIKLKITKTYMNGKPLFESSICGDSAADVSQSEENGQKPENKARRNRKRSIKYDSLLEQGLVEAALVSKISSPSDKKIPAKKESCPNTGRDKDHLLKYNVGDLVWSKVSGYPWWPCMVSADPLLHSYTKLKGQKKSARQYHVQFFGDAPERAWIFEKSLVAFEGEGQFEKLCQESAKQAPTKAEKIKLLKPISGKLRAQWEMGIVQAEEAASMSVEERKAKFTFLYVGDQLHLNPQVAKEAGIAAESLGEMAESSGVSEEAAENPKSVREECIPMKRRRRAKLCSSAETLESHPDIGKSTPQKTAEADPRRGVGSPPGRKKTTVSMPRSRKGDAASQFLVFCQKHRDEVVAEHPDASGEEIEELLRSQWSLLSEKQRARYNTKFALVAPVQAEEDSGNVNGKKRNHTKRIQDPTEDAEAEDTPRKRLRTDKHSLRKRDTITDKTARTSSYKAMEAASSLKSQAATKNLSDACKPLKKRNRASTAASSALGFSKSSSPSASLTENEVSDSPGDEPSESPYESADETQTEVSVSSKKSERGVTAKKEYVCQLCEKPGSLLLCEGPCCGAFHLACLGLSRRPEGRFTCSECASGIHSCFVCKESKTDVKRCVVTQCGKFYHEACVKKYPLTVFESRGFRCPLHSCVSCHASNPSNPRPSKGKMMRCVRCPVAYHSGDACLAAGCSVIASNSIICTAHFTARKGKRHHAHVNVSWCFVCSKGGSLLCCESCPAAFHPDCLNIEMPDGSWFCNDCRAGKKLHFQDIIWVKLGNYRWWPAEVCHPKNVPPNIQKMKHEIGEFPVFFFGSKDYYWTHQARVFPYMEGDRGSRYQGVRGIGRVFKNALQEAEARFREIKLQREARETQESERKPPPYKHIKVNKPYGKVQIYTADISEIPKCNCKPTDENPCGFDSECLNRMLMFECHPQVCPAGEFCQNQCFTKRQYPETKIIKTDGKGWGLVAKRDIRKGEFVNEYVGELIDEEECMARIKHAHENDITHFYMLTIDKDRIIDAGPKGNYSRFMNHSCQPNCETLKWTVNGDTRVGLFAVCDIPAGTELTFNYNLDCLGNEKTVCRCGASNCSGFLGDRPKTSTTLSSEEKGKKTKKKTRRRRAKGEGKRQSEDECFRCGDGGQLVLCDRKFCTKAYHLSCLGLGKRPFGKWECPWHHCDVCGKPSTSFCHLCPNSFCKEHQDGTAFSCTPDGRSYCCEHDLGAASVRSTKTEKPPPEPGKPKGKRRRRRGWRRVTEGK
# [6] = AUC (0 to last) in mouse at 4 mg/kg, ip; format: ADME, organism-based; conditions: in vivo
# [7] = biological target: Histone-lysine N-methyltransferase 2A (Homo sapiens, UniProt Q03164); assay: Inhibition of MLL1 (unknown origin)
# [8] = biological target: Protein arginine N-methyltransferase 1 (Homo sapiens, UniProt Q99873); assay: Inhibition of PRMT1 (unknown origin)
# [9] = biological target: T3, Histone-arginine methyltransferase CARM1 (Homo sapiens, UniProt Q86X55); assay: Inhibition of PRMT4 (unknown origin)
# T3 sequence (Q86X55 whole entry): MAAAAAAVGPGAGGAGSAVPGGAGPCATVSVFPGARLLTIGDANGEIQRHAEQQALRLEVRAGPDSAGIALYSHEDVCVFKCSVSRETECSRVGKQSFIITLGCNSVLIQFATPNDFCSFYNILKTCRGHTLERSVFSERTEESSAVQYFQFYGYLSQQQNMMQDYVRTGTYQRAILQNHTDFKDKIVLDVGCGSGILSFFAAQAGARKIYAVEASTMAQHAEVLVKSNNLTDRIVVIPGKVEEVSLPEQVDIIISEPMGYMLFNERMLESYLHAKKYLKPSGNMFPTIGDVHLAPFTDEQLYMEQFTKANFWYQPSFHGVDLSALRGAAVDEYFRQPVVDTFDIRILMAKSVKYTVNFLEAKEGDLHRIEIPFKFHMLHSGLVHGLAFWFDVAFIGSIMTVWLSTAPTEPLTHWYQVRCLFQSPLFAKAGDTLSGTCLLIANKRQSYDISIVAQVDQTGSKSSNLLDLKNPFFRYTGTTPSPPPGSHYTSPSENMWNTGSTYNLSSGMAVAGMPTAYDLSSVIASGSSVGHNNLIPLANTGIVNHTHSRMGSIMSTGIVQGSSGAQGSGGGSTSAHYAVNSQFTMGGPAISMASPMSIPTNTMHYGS
# [10] = Toxicity in male BALB/c/Nu/Nu mouse xenografted with human PANC-1 cells assessed as drug tolerance administered as ip dose and measured every 2 days for 21 days; format: organism-based; conditions: in vivo, 504 h, time 21 day
# [11] = Toxicity in male BALB/c/Nu/Nu mouse xenografted with human PANC-1 cells assessed as change in body weight administered as ip dose and measured every 2 days for 21 days; format: organism-based; conditions: in vivo, 504 h, time 21 day
# [12] = Half life in mouse at 4 mg/kg, ip; format: ADME, organism-based; conditions: in vivo
# [13] = biological target: Histone-lysine N-methyltransferase EZH2 (Homo sapiens, UniProt Q15910); assay: Inhibition of EZH2 (unknown origin)
# [14] = MRT (0 to t) in mouse at 4 mg/kg, ip; format: ADME, organism-based; conditions: in vivo
# [15] = biological target: DNA (cytosine-5)-methyltransferase 1 (Homo sapiens, UniProt P26358); assay: Inhibition of DNMT1 (unknown origin)
# [16] = Cmax in mouse at 4 mg/kg, ip; format: ADME, organism-based; conditions: in vivo
# [17] = biological target: Histone-lysine N-methyltransferase 2B (Homo sapiens, UniProt Q9UMN6); assay: Inhibition of MLL4 (unknown origin)
# [18] = biological target: T4, Histone-lysine N-methyltransferase EHMT1 (Homo sapiens, UniProt Q9H9B1); assay: Inhibition of GLP (unknown origin)
# T4 sequence (Q9H9B1 whole entry): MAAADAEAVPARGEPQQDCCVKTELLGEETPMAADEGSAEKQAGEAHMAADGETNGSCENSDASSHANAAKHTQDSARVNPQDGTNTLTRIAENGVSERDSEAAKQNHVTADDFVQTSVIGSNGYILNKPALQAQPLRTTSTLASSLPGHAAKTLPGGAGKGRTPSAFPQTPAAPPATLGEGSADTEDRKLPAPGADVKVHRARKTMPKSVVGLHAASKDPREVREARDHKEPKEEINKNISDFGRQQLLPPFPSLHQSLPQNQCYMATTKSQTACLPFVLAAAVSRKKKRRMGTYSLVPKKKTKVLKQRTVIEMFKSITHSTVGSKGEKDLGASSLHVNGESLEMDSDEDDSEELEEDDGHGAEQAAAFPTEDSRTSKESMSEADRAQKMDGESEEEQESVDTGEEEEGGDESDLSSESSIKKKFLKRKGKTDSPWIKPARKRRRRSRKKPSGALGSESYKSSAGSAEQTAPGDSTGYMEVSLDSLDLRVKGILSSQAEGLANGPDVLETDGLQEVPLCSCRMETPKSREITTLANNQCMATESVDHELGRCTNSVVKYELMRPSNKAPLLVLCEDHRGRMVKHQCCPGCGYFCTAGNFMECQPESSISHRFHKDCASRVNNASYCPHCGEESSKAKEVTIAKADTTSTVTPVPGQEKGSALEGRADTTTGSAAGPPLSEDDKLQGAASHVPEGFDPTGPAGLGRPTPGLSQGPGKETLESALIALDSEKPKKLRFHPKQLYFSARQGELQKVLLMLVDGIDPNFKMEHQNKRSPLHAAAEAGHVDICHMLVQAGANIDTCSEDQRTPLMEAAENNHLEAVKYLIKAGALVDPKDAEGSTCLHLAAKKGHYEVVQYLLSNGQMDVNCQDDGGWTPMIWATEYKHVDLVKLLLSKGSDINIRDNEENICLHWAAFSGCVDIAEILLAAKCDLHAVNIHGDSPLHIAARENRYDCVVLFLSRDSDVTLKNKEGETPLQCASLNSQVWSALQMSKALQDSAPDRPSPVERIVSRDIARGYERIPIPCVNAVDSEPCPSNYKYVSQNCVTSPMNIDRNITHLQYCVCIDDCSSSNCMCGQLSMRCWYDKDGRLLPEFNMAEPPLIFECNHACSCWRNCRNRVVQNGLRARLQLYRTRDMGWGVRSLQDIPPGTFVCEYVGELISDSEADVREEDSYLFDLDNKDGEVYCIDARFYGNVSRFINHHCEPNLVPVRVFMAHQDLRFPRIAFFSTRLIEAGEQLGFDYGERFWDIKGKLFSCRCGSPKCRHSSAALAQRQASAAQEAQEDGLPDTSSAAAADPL
# [19] = biological target: Protein arginine N-methyltransferase 5 (Homo sapiens, UniProt O14744); assay: Inhibition of PRMT5 (unknown origin)
# [20] = AUC (0 to infinity) in mouse at 4 mg/kg, ip; format: ADME, organism-based; conditions: in vivo
# DNA (cytosine-5)-methyltransferase 1, sequence (P26358 whole entry): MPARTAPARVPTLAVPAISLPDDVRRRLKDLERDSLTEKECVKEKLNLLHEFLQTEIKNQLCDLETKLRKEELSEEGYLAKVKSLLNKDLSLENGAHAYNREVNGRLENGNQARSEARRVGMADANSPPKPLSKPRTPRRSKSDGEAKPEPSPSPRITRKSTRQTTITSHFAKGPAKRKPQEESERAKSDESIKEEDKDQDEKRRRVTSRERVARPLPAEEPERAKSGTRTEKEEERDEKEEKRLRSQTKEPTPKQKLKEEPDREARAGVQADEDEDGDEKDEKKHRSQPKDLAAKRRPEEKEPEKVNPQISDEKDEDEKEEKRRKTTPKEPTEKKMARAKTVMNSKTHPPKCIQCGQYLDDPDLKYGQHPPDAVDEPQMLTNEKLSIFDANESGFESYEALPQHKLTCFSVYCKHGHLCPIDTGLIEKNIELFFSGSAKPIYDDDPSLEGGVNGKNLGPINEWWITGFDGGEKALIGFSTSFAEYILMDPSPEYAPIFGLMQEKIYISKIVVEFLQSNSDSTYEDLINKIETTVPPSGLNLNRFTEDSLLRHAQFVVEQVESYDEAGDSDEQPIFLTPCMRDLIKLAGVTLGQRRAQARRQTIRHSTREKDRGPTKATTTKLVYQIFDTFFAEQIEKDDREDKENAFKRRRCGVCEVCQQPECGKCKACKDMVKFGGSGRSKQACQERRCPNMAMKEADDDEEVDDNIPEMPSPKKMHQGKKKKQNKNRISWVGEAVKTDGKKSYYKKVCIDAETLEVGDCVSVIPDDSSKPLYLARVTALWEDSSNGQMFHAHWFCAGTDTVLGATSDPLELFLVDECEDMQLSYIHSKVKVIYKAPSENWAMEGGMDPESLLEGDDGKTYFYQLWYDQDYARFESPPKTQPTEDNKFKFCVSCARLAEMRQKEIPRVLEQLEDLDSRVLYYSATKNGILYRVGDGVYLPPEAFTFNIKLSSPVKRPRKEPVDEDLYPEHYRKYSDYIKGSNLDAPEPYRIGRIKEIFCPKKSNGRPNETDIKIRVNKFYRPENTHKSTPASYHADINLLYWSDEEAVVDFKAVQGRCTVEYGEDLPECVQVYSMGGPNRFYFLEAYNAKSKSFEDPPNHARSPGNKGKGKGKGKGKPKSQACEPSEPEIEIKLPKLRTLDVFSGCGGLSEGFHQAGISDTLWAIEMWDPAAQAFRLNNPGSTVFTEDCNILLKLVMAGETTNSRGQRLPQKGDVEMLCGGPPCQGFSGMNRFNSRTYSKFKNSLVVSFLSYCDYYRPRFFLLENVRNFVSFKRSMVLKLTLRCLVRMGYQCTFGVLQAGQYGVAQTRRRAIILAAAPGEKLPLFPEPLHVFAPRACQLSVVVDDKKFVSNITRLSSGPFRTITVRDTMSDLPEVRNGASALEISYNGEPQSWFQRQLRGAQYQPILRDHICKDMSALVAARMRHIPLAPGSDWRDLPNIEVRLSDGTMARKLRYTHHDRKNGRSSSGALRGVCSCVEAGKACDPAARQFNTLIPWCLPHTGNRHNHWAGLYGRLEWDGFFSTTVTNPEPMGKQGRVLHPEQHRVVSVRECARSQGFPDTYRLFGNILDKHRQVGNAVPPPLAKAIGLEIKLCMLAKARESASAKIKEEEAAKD
# Histone-lysine N-methyltransferase 2B, sequence (Q9UMN6 whole entry): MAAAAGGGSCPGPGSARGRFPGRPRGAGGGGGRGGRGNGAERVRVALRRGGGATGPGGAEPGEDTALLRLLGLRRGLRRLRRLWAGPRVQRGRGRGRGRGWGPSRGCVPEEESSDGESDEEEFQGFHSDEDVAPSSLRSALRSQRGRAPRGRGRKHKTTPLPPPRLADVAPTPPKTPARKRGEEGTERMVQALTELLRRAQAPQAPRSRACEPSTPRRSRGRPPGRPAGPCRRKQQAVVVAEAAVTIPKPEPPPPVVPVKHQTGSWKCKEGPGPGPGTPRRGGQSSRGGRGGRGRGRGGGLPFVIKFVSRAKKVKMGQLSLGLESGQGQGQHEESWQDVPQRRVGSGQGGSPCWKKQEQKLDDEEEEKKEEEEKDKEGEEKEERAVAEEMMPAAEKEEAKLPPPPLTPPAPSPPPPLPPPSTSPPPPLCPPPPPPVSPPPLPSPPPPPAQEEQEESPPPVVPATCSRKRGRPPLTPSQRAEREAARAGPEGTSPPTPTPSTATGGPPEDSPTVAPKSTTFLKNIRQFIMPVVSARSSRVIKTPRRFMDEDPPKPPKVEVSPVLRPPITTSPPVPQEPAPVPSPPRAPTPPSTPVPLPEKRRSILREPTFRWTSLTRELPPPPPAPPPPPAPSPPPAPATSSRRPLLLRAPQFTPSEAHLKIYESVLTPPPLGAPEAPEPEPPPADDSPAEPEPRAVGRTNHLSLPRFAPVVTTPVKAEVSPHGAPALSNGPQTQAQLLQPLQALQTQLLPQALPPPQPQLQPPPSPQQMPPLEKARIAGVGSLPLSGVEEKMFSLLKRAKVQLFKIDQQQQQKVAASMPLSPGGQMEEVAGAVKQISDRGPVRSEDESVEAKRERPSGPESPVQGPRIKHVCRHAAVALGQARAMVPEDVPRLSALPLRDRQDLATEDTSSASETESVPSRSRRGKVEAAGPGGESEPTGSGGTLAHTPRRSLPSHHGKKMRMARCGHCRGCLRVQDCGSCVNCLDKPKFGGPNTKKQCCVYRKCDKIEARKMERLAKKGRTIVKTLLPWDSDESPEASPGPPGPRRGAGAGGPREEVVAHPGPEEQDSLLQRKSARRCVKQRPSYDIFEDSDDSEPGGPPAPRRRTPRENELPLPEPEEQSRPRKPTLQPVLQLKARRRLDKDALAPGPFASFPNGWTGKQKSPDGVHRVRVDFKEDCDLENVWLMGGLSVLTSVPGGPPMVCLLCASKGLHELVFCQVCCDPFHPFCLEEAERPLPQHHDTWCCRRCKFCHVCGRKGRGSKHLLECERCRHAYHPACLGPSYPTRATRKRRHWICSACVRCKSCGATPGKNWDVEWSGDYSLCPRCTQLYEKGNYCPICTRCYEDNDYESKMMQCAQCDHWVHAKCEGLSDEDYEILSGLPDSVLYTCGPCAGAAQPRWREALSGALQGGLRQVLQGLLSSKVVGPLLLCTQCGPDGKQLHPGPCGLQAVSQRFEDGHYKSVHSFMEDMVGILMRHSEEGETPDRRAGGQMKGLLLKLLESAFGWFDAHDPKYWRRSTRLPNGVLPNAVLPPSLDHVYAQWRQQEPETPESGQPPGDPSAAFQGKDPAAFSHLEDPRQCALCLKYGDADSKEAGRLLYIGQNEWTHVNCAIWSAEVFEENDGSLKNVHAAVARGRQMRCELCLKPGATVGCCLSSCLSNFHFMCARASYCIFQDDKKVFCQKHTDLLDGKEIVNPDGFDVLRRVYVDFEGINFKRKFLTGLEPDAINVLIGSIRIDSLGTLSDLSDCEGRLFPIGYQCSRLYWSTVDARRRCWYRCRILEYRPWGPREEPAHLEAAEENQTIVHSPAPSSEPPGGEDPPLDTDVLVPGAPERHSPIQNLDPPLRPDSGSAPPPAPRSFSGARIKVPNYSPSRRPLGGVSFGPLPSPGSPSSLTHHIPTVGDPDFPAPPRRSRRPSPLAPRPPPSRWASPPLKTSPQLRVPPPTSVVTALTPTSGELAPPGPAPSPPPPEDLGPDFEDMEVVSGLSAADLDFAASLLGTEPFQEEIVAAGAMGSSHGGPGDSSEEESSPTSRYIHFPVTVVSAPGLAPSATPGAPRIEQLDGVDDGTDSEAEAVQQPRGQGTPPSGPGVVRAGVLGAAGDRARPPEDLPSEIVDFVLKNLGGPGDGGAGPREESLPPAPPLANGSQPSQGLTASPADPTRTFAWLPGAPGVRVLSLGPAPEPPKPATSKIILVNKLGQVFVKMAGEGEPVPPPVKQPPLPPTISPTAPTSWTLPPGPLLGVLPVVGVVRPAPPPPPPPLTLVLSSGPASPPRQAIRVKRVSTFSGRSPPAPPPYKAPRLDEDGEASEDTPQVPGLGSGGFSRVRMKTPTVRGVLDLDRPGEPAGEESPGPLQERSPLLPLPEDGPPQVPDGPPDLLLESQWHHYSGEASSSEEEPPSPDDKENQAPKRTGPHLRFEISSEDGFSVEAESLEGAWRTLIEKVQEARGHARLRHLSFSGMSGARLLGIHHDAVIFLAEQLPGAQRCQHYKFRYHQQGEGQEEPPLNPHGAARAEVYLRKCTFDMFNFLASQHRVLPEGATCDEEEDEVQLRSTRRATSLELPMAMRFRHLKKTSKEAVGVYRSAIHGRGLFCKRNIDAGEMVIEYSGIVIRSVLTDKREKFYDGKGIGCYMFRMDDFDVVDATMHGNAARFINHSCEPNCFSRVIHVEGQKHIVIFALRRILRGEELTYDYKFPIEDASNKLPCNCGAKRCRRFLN
# Protein arginine N-methyltransferase 1, sequence (Q99873 whole entry): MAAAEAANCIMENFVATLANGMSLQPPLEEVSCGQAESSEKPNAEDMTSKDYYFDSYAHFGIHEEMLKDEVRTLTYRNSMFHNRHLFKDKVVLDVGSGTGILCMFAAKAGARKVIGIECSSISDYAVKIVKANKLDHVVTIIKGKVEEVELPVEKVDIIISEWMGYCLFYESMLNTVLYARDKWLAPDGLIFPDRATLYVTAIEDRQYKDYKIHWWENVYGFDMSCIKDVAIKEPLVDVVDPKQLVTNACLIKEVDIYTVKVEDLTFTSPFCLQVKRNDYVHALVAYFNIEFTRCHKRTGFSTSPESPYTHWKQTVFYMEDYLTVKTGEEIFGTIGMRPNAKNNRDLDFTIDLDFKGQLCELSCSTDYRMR
structure (smiles),measurement,setting,value
COc1cc2c(NC3CCN(C(C)C)CC3)nc(N3CCC(F)(F)CC3)nc2cc1OCCCN1CCCC1,IC50,[1],5.74 µM
same,IC50,[2],3.31 µM
same,inhibition in vivo at 4 mg/kg,[3],7.34%
C=CC(=O)N(C)c1nc(NC2CCN(C(C)C)CC2)c2cc(OC)c(OCCCN3CCCC3)cc2n1,IC50,[4],0.0085 µM
CNc1nc2cc(OCCCN3CCCC3)c(OC)cc2n1C(C)C,IC50,[4],< 0.1 µM
COc1cc2nc(C#N)nc(NC3CCN(Cc4ccccc4)CC3)c2cc1OC,IC50,[4],> 10 µM
same,IC50,[5],2.65 µM
COc1cc2c(NC3CCN(C(C)C)CC3)nc(C#N)nc2cc1OCCCN1CCCC1,AUClast,[6],1987 ng·h/mL
same,IC50,[7],> 10 µM
same,IC50,[8],6.44 µM
same,IC50,[9],> 10 µM
same,Activity,[10],Non-Toxic
same,Activity,[11],Non-Toxic
same,half-life,[12],16 h
same,IC50,[13],> 10 µM
same,MRT last,[14],20.3 h
same,IC50,[15],> 10 µM
same,Cmax,[16],732 ng/mL
same,IC50,[17],> 10 µM
same,IC50,[18],0.41 µM
same,IC50,[19],> 10 µM
same,AUC,[20],2960 ng·h/mL
COc1cc(F)c(-c2cc(Cn3cnc4c(N)ncnc43)c(N3CCC[C@](N)([C@H](O)CF)C3)cn2)cc1F,IC50,[5],< 0.1 µM
